Assay results as given in US20250170140A1, “PHARMACEUTICAL COMPOSITION FOR PREVENTING OR TREATING CANCER COMPRISING CARNITINE ACYLCARNITINE CARRIER INHIBITOR AND PEROXISOMAL BETA OXIDATION INHIBITOR” (priority 2021, published 2025).

Experiments:
Assay type in all cases: cell-based
MDA-MB-231 cells = assay: SRB assay, breast cancer cell line MDA-MB-231
Protocol: (§1) As a comparison, omeprazole (KN510) and trimetazidine (KN713), a 3-ketoacyl CoA thiolase inhibitor, were co-treated. […] After cell inoculation, 96-well cell culture plates were incubated for 24 hours before the addition of experimental drugs. […] The cells were then incubated in a CO2 incubator for 48 hours, after which the assay was terminated by the addition of cold TCA. Cells were fixed in situ by gently adding 50 μl of cold 50% (w/v) TCA (final concentration: 10% TCA) and incubated at 4° C. for 60 min. The supernatant was discarded, and the plate was washed five times with distilled water and air dried. Sulforhodamine B (SRB) solution (100 μl) of 0.4% (w/v) in 1% acetic acid was added to each well, and the plate was left at room temperature for 10 min. After staining, unbound dye was removed by washing five times with 1% acetic acid, and the plate was air-dried. The bound dye was then solubilized with 10 mM trizma base, and the absorbance was recorded at 515 nm using an automated plate reader. […] The predicted synergistic activity of a combination of the present invention can be calculated using the Colby Equation in Equation 1 (S.R. Colby, Weeds, 1967, pp. 15, 20-22): In the present invention, the actual measure of anti-cancer activity of the combination treatment was the inhibition rate of cancer cell growth (%), and the predicted value (E) of the combination treatment was measured by substituting it into the above Colby Equation.

HCT-116 cells = assay: SRB assay, colon cancer cell line HCT-116
Protocol: as §1

U251 cells = assay: SRB assay, glioblastoma cell line U251
Protocol: as §1

Hep-3B cells = assay: SRB assay, liver cancer cell line Hep-3B
Protocol: as §1

SK-HEP-1 cells = assay: SRB assay, liver cancer cell line SK-HEP-1
Protocol: as §1

K562 cells = assay: SRB assay, leukemia cell line K562
Protocol: as §1

SR cells = assay: SRB assay, leukemia cell line SR
Protocol: as §1

SK-MEL-5 = assay: SRB assay, melanoma cell line SK-MEL-5
Protocol: as §1

OVCAR-8 cells = assay: SRB assay, ovarian cancer cells OVCAR-8
Protocol: as §1

PC-3 cells = assay: SRB assay, prostate cancer cells PC-3
Protocol: as §1

DU-145 cells = assay: SRB assay, prostate cancer cells DU-145
Protocol: as §1

PANC-1 cells = assay: SRB assay, pancreatic cancer cell line PANC-1
Protocol: as §1

ACHN cells = assay: SRB assay, renal cell carcinoma cell line ACHN
Protocol: as §1

AGS cells = assay: SRB assay, stomach cancer cell line AGS
Protocol: as §1

[1] = Homo sapiens, KN714 5 μM, read-out: Inhibition rate of cancer cell growth (%) (Actual value)
[2] = Homo sapiens, KN714 10 μM, read-out: Inhibition rate of cancer cell growth (%) (Actual value)
[3] = Homo sapiens, KN510 100 μM, read-out: Inhibition rate of cancer cell growth (%) (Actual value)
[4] = Homo sapiens, KN510 200 μM, read-out: Inhibition rate of cancer cell growth (%) (Actual value)

Structure (SMILES): CSc1ccc2c(c1)N(CCC1CCCCN1C)c1ccccc1S2 (stereo not shown) [KN714, 10-[2-(1-methyl-2-piperidyl)ethyl]-2-(methylthio)phenothiazine]
- inhibition at 5 µM (MDA-MB-231 cells; [1]): 9.36%
- inhibition at 10 µM (MDA-MB-231 cells; [2]): 29.8%
- Cancer cell growth rate Average (%) (MDA-MB-231 cells; KN714 5 μM): 90.64%
- Cancer cell growth rate Average (%) (MDA-MB-231 cells; KN714 10 μM): 70.20%
- inhibition at 5 µM (HCT-116 cells; [1]): 7.99%
- inhibition at 10 µM (HCT-116 cells; [2]): 32.2%
- Cancer cell growth rate Average (%) (HCT-116 cells; KN714 5 μM): 92.01%
- Cancer cell growth rate Average (%) (HCT-116 cells; KN714 10 μM): 67.80%
- inhibition at 5 µM (U251 cells; Homo sapiens, U-251, KN714 5 μM, read-out: Inhibition rate of cancer cell growth (%) (Actual value)): 40%
- inhibition at 10 µM (U251 cells; Homo sapiens, U-251, KN714 10 μM, read-out: Inhibition rate of cancer cell growth (%) (Actual value)): 121%
- Cancer cell growth rate Average (%) (U251 cells; KN714 5 μM): 59.99%
- Cancer cell growth rate Average (%) (U251 cells; KN714 10 μM): −20.54%
- inhibition at 5 µM (Hep-3B cells; Homo sapiens, Hep3B, KN714 5 μM, read-out: Inhibition rate of cancer cell growth (%) (Actual value)): 6.06%
- inhibition at 10 µM (Hep-3B cells; Homo sapiens, Hep3B, KN714 10 μM, read-out: Inhibition rate of cancer cell growth (%) (Actual value)): 29.9%
- Cancer cell growth rate Average (%) (Hep-3B cells; KN714 5 μM): 93.94%
- Cancer cell growth rate Average (%) (Hep-3B cells; KN714 10 μM): 70.15%
- inhibition at 5 µM (SK-HEP-1 cells; Homo sapiens, SK-HEP1, KN714 5 μM, read-out: Inhibition rate of cancer cell growth (%) (Actual value)): 17.6%
- inhibition at 10 µM (SK-HEP-1 cells; Homo sapiens, SK-HEP1, KN714 10 μM, read-out: Inhibition rate of cancer cell growth (%) (Actual value)): 40.1%
- Cancer cell growth rate Average (%) (SK-HEP-1 cells; KN714 5 μM): 82.37%
- Cancer cell growth rate Average (%) (SK-HEP-1 cells; KN714 10 μM): 59.94%
- inhibition at 5 µM (K562 cells; [1]): 57.8%
- inhibition at 10 µM (K562 cells; [2]): 102%
- Cancer cell growth rate Average (%) (K562 cells; KN714 5 μM): 42.25%
- Cancer cell growth rate Average (%) (K562 cells; KN714 10 μM): −1.56%
- inhibition at 5 µM (SR cells; [1]): 37.2%
- inhibition at 10 µM (SR cells; [2]): 111%
- Cancer cell growth rate Average (%) (SR cells; KN714 5 μM): 62.75%
- Cancer cell growth rate Average (%) (SR cells; KN714 10 μM): −11.34%
- inhibition at 5 µM (SK-MEL-5; [1]): 19.3%
- inhibition at 10 µM (SK-MEL-5; [2]): 124%
- Cancer cell growth rate Average (%) (SK-MEL-5; KN714 5 μM): 80.69%
- Cancer cell growth rate Average (%) (SK-MEL-5; KN714 10 μM): −23.56%
- inhibition at 5 µM (OVCAR-8 cells; [1]): 6.92%
- inhibition at 10 µM (OVCAR-8 cells; [2]): 55.1%
- Cancer cell growth rate Average (%) (OVCAR-8 cells; KN714 5 μM): 93.08%
- Cancer cell growth rate Average (%) (OVCAR-8 cells; KN714 10 μM): 44.89%
- inhibition at 5 µM (PC-3 cells; [1]): 18.1%
- inhibition at 10 µM (PC-3 cells; [2]): 53%
- Cancer cell growth rate Average (%) (PC-3 cells; KN714 5 μM): 81.94%
- Cancer cell growth rate Average (%) (PC-3 cells; KN714 10 μM): 47.00%
- inhibition at 5 µM (DU-145 cells; [1]): 24.5%
- inhibition at 10 µM (DU-145 cells; [2]): 44.7%
- Cancer cell growth rate Average (%) (DU-145 cells; KN714 5 μM): 75.49%
- Cancer cell growth rate Average (%) (DU-145 cells; KN714 10 μM): 55.27%
- inhibition at 5 µM (PANC-1 cells; [1]): 10.2%
- inhibition at 10 µM (PANC-1 cells; [2]): 70%
- Cancer cell growth rate Average (%) (PANC-1 cells; KN714 5 μM): 89.85%
- Cancer cell growth rate Average (%) (PANC-1 cells; KN714 10 μM): 30.04%
- inhibition at 5 µM (ACHN cells; [1]): -2.76%
- inhibition at 10 µM (ACHN cells; [2]): 29.6%
- Cancer cell growth rate Average (%) (ACHN cells; KN714 5 μM): 102.76%
- Cancer cell growth rate Average (%) (ACHN cells; KN714 10 μM): 70.39%
- inhibition at 5 µM (AGS cells; [1]): 32.9%
- inhibition at 10 µM (AGS cells; [2]): 84.5%
- Cancer cell growth rate Average (%) (AGS cells; KN714 5 μM): 67.13%
- Cancer cell growth rate Average (%) (AGS cells; KN714 10 μM): 15.46%

Structure (SMILES): COc1ccc2[nH]c([S+]([O-])Cc3ncc(C)c(OC)c3C)nc2c1 (stereo not shown) [KN510, omeprazole]
- inhibition at 100 µM (MDA-MB-231 cells; [3]): 29.7%
- inhibition at 200 µM (MDA-MB-231 cells; [4]): 71.9%
- Cancer cell growth rate Average (%) (MDA-MB-231 cells; KN510 100 μM): 70.29%
- Cancer cell growth rate Average (%) (MDA-MB-231 cells; KN510 200 μM): 28.13%
- inhibition at 100 µM (HCT-116 cells; [3]): 15.7%
- inhibition at 200 µM (HCT-116 cells; [4]): 31.1%
- Cancer cell growth rate Average (%) (HCT-116 cells; KN510 100 μM): 84.28%
- Cancer cell growth rate Average (%) (HCT-116 cells; KN510 200 μM): 68.86%
- inhibition at 100 µM (U251 cells; Homo sapiens, U-251, KN510 100 μM, read-out: Inhibition rate of cancer cell growth (%) (Actual value)): 26.5%
- inhibition at 200 µM (U251 cells; Homo sapiens, U-251, KN510 200 μM, read-out: Inhibition rate of cancer cell growth (%) (Actual value)): 44.9%
- Cancer cell growth rate Average (%) (U251 cells; KN510 100 μM): 73.51%
- Cancer cell growth rate Average (%) (U251 cells; KN510 200 μM): 55.11%
- inhibition at 100 µM (Hep-3B cells; Homo sapiens, Hep3B, KN510 100 μM, read-out: Inhibition rate of cancer cell growth (%) (Actual value)): 15.1%
- inhibition at 200 µM (Hep-3B cells; Homo sapiens, Hep3B, KN510 200 μM, read-out: Inhibition rate of cancer cell growth (%) (Actual value)): 40.1%
- Cancer cell growth rate Average (%) (Hep-3B cells; KN510 100 μM): 84.95%
- Cancer cell growth rate Average (%) (Hep-3B cells; KN510 200 μM): 59.89%
- inhibition at 100 µM (SK-HEP-1 cells; Homo sapiens, SK-HEP1, KN510 100 μM, read-out: Inhibition rate of cancer cell growth (%) (Actual value)): 46.7%
- inhibition at 200 µM (SK-HEP-1 cells; Homo sapiens, SK-HEP1, KN510 200 μM, read-out: Inhibition rate of cancer cell growth (%) (Actual value)): 62.8%
- Cancer cell growth rate Average (%) (SK-HEP-1 cells; KN510 100 μM): 53.28%
- Cancer cell growth rate Average (%) (SK-HEP-1 cells; KN510 200 μM): 37.19%
- inhibition at 100 µM (K562 cells; [3]): 44.8%
- inhibition at 200 µM (K562 cells; [4]): 73%
- Cancer cell growth rate Average (%) (K562 cells; KN510 100 μM): 55.18%
- Cancer cell growth rate Average (%) (K562 cells; KN510 200 μM): 27.01%
- inhibition at 100 µM (SR cells; [3]): 35.1%
- inhibition at 200 µM (SR cells; [4]): 70.1%
- Cancer cell growth rate Average (%) (SR cells; KN510 100 μM): 64.90%
- Cancer cell growth rate Average (%) (SR cells; KN510 200 μM): 29.89%
- inhibition at 100 µM (SK-MEL-5; [3]): 34.6%
- inhibition at 200 µM (SK-MEL-5; [4]): 53.9%
- Cancer cell growth rate Average (%) (SK-MEL-5; KN510 100 μM): 65.42%
- Cancer cell growth rate Average (%) (SK-MEL-5; KN510 200 μM): 46.11%
- inhibition at 100 µM (OVCAR-8 cells; [3]): 44.5%
- inhibition at 200 µM (OVCAR-8 cells; [4]): 63.3%
- Cancer cell growth rate Average (%) (OVCAR-8 cells; KN510 100 μM): 55.49%
- Cancer cell growth rate Average (%) (OVCAR-8 cells; KN510 200 μM): 36.66%
- inhibition at 100 µM (PC-3 cells; [3]): 46.6%
- inhibition at 200 µM (PC-3 cells; [4]): 66.2%
- Cancer cell growth rate Average (%) (PC-3 cells; KN510 100 μM): 53.42%
- Cancer cell growth rate Average (%) (PC-3 cells; KN510 200 μM): 33.81%
- inhibition at 100 µM (DU-145 cells; [3]): 50.4%
- inhibition at 200 µM (DU-145 cells; [4]): 62.9%
- Cancer cell growth rate Average (%) (DU-145 cells; KN510 100 μM): 49.59%
- Cancer cell growth rate Average (%) (DU-145 cells; KN510 200 μM): 37.08%
- inhibition at 100 µM (PANC-1 cells; [3]): 55.5%
- inhibition at 200 µM (PANC-1 cells; [4]): 89%
- Cancer cell growth rate Average (%) (PANC-1 cells; KN510 100 μM): 44.47%
- Cancer cell growth rate Average (%) (PANC-1 cells; KN510 200 μM): 10.96%
- inhibition at 100 µM (ACHN cells; [3]): 38.9%
- inhibition at 200 µM (ACHN cells; [4]): 80.1%
- Cancer cell growth rate Average (%) (ACHN cells; KN510 100 μM): 61.12%
- Cancer cell growth rate Average (%) (ACHN cells; KN510 200 μM): 19.93%
- inhibition at 100 µM (AGS cells; [3]): 39.6%
- inhibition at 200 µM (AGS cells; [4]): 69.5%
- Cancer cell growth rate Average (%) (AGS cells; KN510 100 μM): 60.39%
- Cancer cell growth rate Average (%) (AGS cells; KN510 200 μM): 30.51%
